Where two headings read alike, the source gives them in different places.
Tests used:
[1] = target: T1, Δ49N-hChoKα (Homo sapiens, UniProt P35790); experiment: Biochemical kinase inhibition assay (Kinase-Glo luminescent) on Δ49N-hChoKα; conditions: ATP 5 μM, choline 5 μM, 60 min rt
T1 construct: cDNA fragment 362-1534, corresponding to aminoacids 50 457; GST (N, cleaved yes); PreScission Protease recognition site (N); made in house; host or cells: Escherichia coli BL21pLysS (DE3)
Description: (§1) HumanΔ49ChoKα ([…]Δ49N-hChoKα) cDNA fragment 362-1534, corresponding to aminoacids 50 457 (J. Mol. Biol. 2006, 364, 136-151), and hChoKβ full length (FL), corresponding to aminoacids 2-395 ((PLoS ONE 2009, 4, e7819), were amplified by PCR from human library and cloned, inserting upstream a Prescission Protease recognition site, in pDonor 221 vector, using the Gateway Technology® (Invitrogen). After sequence control, LR reaction was performed in the final expression pGEX 2Tg vector. Both the proteins were expressed in Escherichia coli BL21pLysS (DE3) strain in auto-induction (Kessler) medium in the presence of […] carbenicillin at 25° C. for 16 h. Cells were harvested by centrifugation, the pellet was re-suspended in Lysis buffer (50 mM Tris-HCl pH 7.8, 150 mM NaCl, 10% glycerol, 0.2% CHAPS, 20 mM DTT, Protease Inhibitor Cocktail Tablets from Roche Biochemicals) and lysed by Gaulin homogenizer (Niro Soavi). The lysate was cleared by centrifugation. The supernatant was added to GSH resin and let flow by gravity. The GSH resin was washed with 5 column volume (CV) of cold wash buffer (50 mM Tris-HCl pH 7.8, 150 mM NaCl, 10% glycerol), then with 10 CV of the same buffer containing 2 mM of DTT. Both GST-Δ49N-hChoKα and hChoKβ were subjected to on-column cleavage of the GST tag with Prescission Protease overnight. The eluted cleaved proteins were further purified by ion exchange (ResQ 6 mL chromatography column from GE healthcare) with a gradient from 50 to 500 mM NaCl in 30 CV. The fractions containing […]Δ49N-hChoKα or hChoKβ were pooled, concentrated and gel filtered on a Superdex200 16/60 (GE Healthcare). The final protein concentration was estimated using the Bradford assay. All the samples purified were resolved by SDS-PAGE.
(§2) Biochemical Kinase inhibition Assay on Δ49N-hChoKα and hChoKβFL
(§3) The biochemical activity of compounds against Δ49N-ChoKα and ChoK3 FL were determined using the Kinase-Glo™ Luminescent Kinase Assay (Promega cat. V6711). The assay is based on incubation of the recombinant Δ49N-hChoKα and hChoKβ FL produced in house, 2.2 nM and 30 nM, respectively, with the specific substrates, choline (Sigma-Aldrich-C7017) and ATP, followed by quantification, at the end of reaction time, of the residual not reacted ATP.
(§4) Compounds were 3-fold serially diluted from 10 to 0.0005 μM, then incubated for 60 minutes at room temperature in the presence of ATP 5 μM, choline (5 μM for ChoKα and 20 μM for ChoKβ) and enzyme in a final volume of 19 μL of kinase buffer (50 mM Hepes pH 7.5, 10 mM MgCl2, 1 mM DTT, 3 μM Na3VO4 and 0.2 mg/mL BSA). The final concentration of DMSO was 1%. The assay was run in a robotized format on 384-well plates (Perkin Elmer cat. #6005301).
(§5) At the end of the incubation, an amount of 19 μL of KinaseGlo Reagent was added to each well to stop the reaction and after 30 minutes the luminescence signal was measured using ViewLux reader (Perkin Elmer).
(§6) All information about plate dilution, distribution and raw data of inhibition are tracked via barcode reading and stored in an Oracle DB. The data per each molecule are analyzed by an internally customized version of the SW package “Assay Explorer” which provides sigmoidal fittings of the ten-dilution curves for IC50 determination using a 4 parameter logistic equation: y=bottom+(top−bottom)/(1+10^((log IC50−x)*slope)) where x is the logarithm of the inhibitor concentration, y is the response; y starts at bottom and goes to top with a sigmoid shape.

[2] = target: T2, hChoKβ FL (Homo sapiens, UniProt Q9Y259); experiment: Biochemical kinase inhibition assay (Kinase-Glo luminescent) on hChoKβ FL; conditions: ATP 5 μM, choline 20 μM, 60 min rt
T2 construct: hChoKβ full length (FL), corresponding to aminoacids 2-395; GST (N, cleaved yes); PreScission Protease recognition site (N); made in house; host or cells: Escherichia coli BL21pLysS (DE3)
T2 sequence (Q9Y259 2-395): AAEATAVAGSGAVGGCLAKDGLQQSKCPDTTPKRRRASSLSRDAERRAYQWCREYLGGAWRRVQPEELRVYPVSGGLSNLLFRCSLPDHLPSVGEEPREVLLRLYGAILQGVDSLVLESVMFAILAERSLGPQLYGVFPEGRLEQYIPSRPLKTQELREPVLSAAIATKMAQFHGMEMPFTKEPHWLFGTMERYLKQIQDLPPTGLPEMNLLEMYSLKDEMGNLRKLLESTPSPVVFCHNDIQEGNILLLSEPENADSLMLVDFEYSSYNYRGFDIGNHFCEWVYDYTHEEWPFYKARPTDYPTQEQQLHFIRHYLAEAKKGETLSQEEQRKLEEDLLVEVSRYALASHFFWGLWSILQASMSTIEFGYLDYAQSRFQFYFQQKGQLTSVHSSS
Description: as §1, §2, §3, §4, §5, §6

[3] = recombinant Δ49N-hChoKα 2.2 nM, read-out: ChoKα IC50
[4] = recombinant hChoKβ FL 30 nM, read-out: ChoKβ IC50

T1 sequence (P35790 50-439 isoform P35790-2): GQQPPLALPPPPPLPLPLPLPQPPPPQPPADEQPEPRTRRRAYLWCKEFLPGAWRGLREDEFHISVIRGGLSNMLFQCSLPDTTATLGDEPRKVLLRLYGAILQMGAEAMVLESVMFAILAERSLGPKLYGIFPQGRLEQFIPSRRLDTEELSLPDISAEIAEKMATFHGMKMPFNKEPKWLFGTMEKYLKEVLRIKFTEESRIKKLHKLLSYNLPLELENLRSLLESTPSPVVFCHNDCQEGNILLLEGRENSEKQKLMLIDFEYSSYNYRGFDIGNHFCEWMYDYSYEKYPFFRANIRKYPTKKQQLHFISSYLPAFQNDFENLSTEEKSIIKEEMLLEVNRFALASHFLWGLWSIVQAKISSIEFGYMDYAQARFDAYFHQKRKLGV

SMILES: Cn1nc(C(N)=O)c2c1-c1nc(N)ncc1CC2(C)C [Ref. cpd 1, reference compound]
- IC50 [1, 3]: > 10000 nM

SMILES: CNC(=O)c1nn(C)c2c1C(C)(C)Cc1cnc(N)nc1-2 [Ref. cpd 2, reference compound]
- IC50 [1, 3]: > 10000 nM

SMILES: COc1cccc(NC(=O)c2n[nH]c3c2C(C)(C)Cc2cnc(N)nc2-3)c1 [compound 1]
- IC50 [1, 3]: 257 nM
- IC50 [2, 4]: 1580 nM

SMILES: COc1ccc(NC(=O)c2n[nH]c3c2C(C)(C)Cc2cnc(N)nc2-3)cc1 [compound 2]
- IC50 [1, 3]: 247 nM
- IC50 [2, 4]: 974 nM

SMILES: CC1(C)Cc2cnc(N)nc2-c2[nH]nc(C(=O)Nc3ccc(OC(F)(F)F)cc3)c21 [compound 3]
- IC50 [1, 3]: 992 nM
- IC50 [2, 4]: > 10000 nM

SMILES: CC1(C)Cc2cnc(N)nc2-c2[nH]nc(C(=O)Nc3ccc4c(c3)OCO4)c21 [compound 4]
- IC50 [1, 3]: 244 nM
- IC50 [2, 4]: 1120 nM

SMILES: CCOC(=O)c1ccc(NC(=O)c2n[nH]c3c2C(C)(C)Cc2cnc(N)nc2-3)cc1 [compound 5]
- IC50 [1, 3]: 481 nM
- IC50 [2, 4]: 2590 nM

SMILES: CN1CCN(c2ccc(NC(=O)c3n[nH]c4c3C(C)(C)Cc3cnc(N)nc3-4)cc2)CC1 [compound 6]
- IC50 [1, 3]: 735 nM
- IC50 [2, 4]: 317 nM

SMILES: CN1CCC(NC(=O)c2ccc(NC(=O)c3n[nH]c4c3C(C)(C)Cc3cnc(N)nc3-4)cc2)CC1 [compound 8]
- IC50 [1, 3]: 87 nM
- IC50 [2, 4]: 565 nM

SMILES: CN1CCC(NC(=O)c2ccc(NC(=O)c3nn(CCCO)c4c3C(C)(C)Cc3cnc(N)nc3-4)cc2)CC1 [compound 9]
- IC50 [1, 3]: 693 nM
- IC50 [2, 4]: 5390 nM

SMILES: CN1CCC(NC(=O)c2cccc(NC(=O)c3n[nH]c4c3C(C)(C)Cc3cnc(N)nc3-4)c2)CC1 [compound 10]
- IC50 [1, 3]: 173 nM
- IC50 [2, 4]: 817 nM

SMILES: CC1(C)Cc2cnc(N)nc2-c2[nH]nc(C(=O)Nc3ccc(C(=O)NC4CCOCC4)cc3)c21 [compound 11]
- IC50 [1, 3]: 195 nM
- IC50 [2, 4]: 395 nM

SMILES: CC1(C)Cc2cnc(N)nc2-c2[nH]nc(C(=O)Nc3ccc(C(=O)N4CCC(N5CCCC5)CC4)cc3)c21 [compound 13]
- IC50 [1, 3]: 42 nM
- IC50 [2, 4]: 122 nM

SMILES: CN(C)C1CCN(C(=O)c2ccc(NC(=O)c3n[nH]c4c3C(C)(C)Cc3cnc(N)nc3-4)cc2)CC1 [compound 14]
- IC50 [1, 3]: 198 nM
- IC50 [2, 4]: 37 nM

SMILES: CC1(C)Cc2cnc(N)nc2-c2[nH]nc(C(=O)Nc3ccc(C(=O)NC4CCCCC4)cc3)c21 [compound 16]
- IC50 [1, 3]: 75 nM
- IC50 [2, 4]: 63 nM

SMILES: CCOC(=O)c1cccc(NC(=O)c2n[nH]c3c2C(C)(C)Cc2cnc(N)nc2-3)c1 [compound 17]
- IC50 [1, 3]: 795 nM
- IC50 [2, 4]: 2290 nM

SMILES: CC1(C)Cc2cnc(N)nc2-c2[nH]nc(C(=O)Nc3cccc(C(=O)O)c3)c21 [compound 18]
- IC50 [1, 3]: 641 nM
- IC50 [2, 4]: 6350 nM

SMILES: CC1(C)Cc2cnc(N)nc2-c2[nH]nc(C(=O)Nc3ccc(C(=O)N4CCC(N5CCCCC5)CC4)cc3)c21 [compound 20]
- IC50 [1, 3]: 24 nM
- IC50 [2, 4]: 76 nM

SMILES: CC1(C)Cc2cnc(N)nc2-c2[nH]nc(C(=O)Nc3cccc(C(=O)NC4CCCCC4)c3)c21 [compound 25]
- IC50 [1, 3]: 253 nM
- IC50 [2, 4]: 625 nM

SMILES: CC1(C)Cc2cnc(N)nc2-c2[nH]nc(C(=O)Nc3cccc(C(=O)N4CCC(N5CCCC5)CC4)c3)c21 [compound 26]
- IC50 [1, 3]: 266 nM
- IC50 [2, 4]: 435 nM

SMILES: CNC(=O)c1ccc(NC(=O)c2n[nH]c3c2C(C)(C)Cc2cnc(N)nc2-3)cc1 [compound 27]
- IC50 [1, 3]: 267 nM
- IC50 [2, 4]: 444 nM

SMILES: CC1(C)Cc2cnc(N)nc2-c2[nH]nc(C(=O)Nc3ccc(C(=O)N[C@H]4CC[C@H](O)CC4)cc3)c21 [compound 28]
- IC50 [1, 3]: 511 nM
- IC50 [2, 4]: 3110 nM

SMILES: CC1(C)Cc2cnc(N)nc2-c2[nH]nc(C(=O)Nc3ccc(C(=O)NC4CCCC4)cc3)c21 [compound 29]
- IC50 [1, 3]: 132 nM
- IC50 [2, 4]: 71 nM

SMILES: CC1(C)Cc2cnc(N)nc2-c2[nH]nc(C(=O)Nc3ccc(C(=O)NC4CCC4)cc3)c21 [compound 30]
- IC50 [1, 3]: 110 nM
- IC50 [2, 4]: 136 nM

SMILES: CC1(C)Cc2cnc(N)nc2-c2[nH]nc(C(=O)Nc3ccc(C(=O)NC4CC4)cc3)c21 [compound 31]
- IC50 [1, 3]: 257 nM
- IC50 [2, 4]: 431 nM

SMILES: Cc1csc(NC(=O)c2n[nH]c3c2C(C)(C)Cc2cnc(N)nc2-3)n1 [compound 32]
- IC50 [1, 3]: 66 nM
- IC50 [2, 4]: 1090 nM

SMILES: CCOC(=O)Cc1csc(NC(=O)c2n[nH]c3c2C(C)(C)Cc2cnc(N)nc2-3)n1 [compound 33]
- IC50 [1, 3]: 430 nM
- IC50 [2, 4]: > 10000 nM

SMILES: CC1(C)Cc2cnc(N)nc2-c2[nH]nc(C(=O)NC3CCCCC3)c21 [compound 34]
- IC50 [1, 3]: 748 nM
- IC50 [2, 4]: > 10000 nM

SMILES: CC1(C)Cc2cnc(N)nc2-c2[nH]nc(C(=O)Nc3nc(CC(=O)NC4CCCCC4)cs3)c21 [compound 35]
- IC50 [1, 3]: 47 nM
- IC50 [2, 4]: 439 nM

SMILES: CC1(C)Cc2cnc(N)nc2-c2[nH]nc(C(=O)N3CCC(N4CCCC4)CC3)c21 [compound 36]
- IC50 [1, 3]: 480 nM
- IC50 [2, 4]: > 10000 nM

SMILES: CC1(C)Cc2cnc(N)nc2-c2[nH]nc(C(=O)Nc3nc(CC(=O)N4CCC(N5CCCC5)CC4)cs3)c21 [compound 37]
- IC50 [1, 3]: 3 nM
- IC50 [2, 4]: 69 nM

SMILES: CC1(C)Cc2cnc(N)nc2-c2[nH]nc(C(=O)N3CCC(N4CCCCC4)CC3)c21 [compound 38]
- IC50 [1, 3]: 682 nM
- IC50 [2, 4]: > 10000 nM

SMILES: CN1CCN(C2CCN(C(=O)c3ccc(NC(=O)c4n[nH]c5c4C(C)(C)Cc4cnc(N)nc4-5)cc3)CC2)CC1 [compound 41]
- IC50 [1, 3]: 70 nM
- IC50 [2, 4]: 471 nM

SMILES: CC1(C)Cc2cnc(N)nc2-c2[nH]nc(C(=O)Nc3nc(CC(=O)O)cs3)c21 [compound 42]
- IC50 [1, 3]: 54 nM
- IC50 [2, 4]: > 10000 nM

SMILES: CC(C)(C)OC(=O)NC1CCN(C(=O)Cc2csc(NC(=O)c3n[nH]c4c3C(C)(C)Cc3cnc(N)nc3-4)n2)CC1 [compound 43]
- IC50 [1, 3]: 7 nM
- IC50 [2, 4]: 1030 nM

SMILES: CC1(C)Cc2cnc(N)nc2-c2[nH]nc(C(=O)Nc3nc(CC(=O)N4CCC(N)CC4)cs3)c21 [compound 44]
- IC50 [1, 3]: 25 nM
- IC50 [2, 4]: 256 nM

SMILES: CC1(C)Cc2cnc(N)nc2-c2[nH]nc(C(=O)Nc3nc(CC(=O)N4CCC(=O)CC4)cs3)c21 [compound 45]
- IC50 ([1]; ChoKα IC50, recombinant Δ49N-hChoKα 2.2 nM): 121 nM
- IC50 ([2]; ChoKβ IC50, recombinant hChoKβ FL 30 nM): > 10000 nM

SMILES: CC(C)(C)OC(=O)NC1CCN(C(=O)c2ccc(NC(=O)c3n[nH]c4c3C(C)(C)Cc3cnc(N)nc3-4)cc2)CC1 [compound 46]
- IC50 [1, 3]: 110 nM
- IC50 [2, 4]: 1620 nM

SMILES: CC1(C)Cc2cnc(N)nc2-c2[nH]nc(C(=O)Nc3nc(CC(=O)N4CCC(N5CCCCCC5)CC4)cs3)c21 [compound 47]
- IC50 [1, 3]: 2 nM
- IC50 [2, 4]: 86 nM

SMILES: CC1(C)Cc2cnc(N)nc2-c2[nH]nc(C(=O)Nc3ccc(C(=O)N4CCC(N)CC4)cc3)c21 [compound 49]
- IC50 [1, 3]: 623 nM
- IC50 [2, 4]: 765 nM

SMILES: CC1(C)Cc2cnc(N)nc2-c2[nH]nc(C(=O)Nc3ccc(C(=O)N4CCC(N5CCOCC5)CC4)cc3)c21 [compound 50]
- IC50 [1, 3]: 215 nM
- IC50 [2, 4]: 716 nM

SMILES: CC1(C)Cc2cnc(N)nc2-c2[nH]nc(C(=O)Nc3ccc(C(=O)N4CCC(N5CCC(F)(F)CC5)CC4)cc3)c21 [compound 51]
- IC50 [1, 3]: 151 nM
- IC50 [2, 4]: 273 nM

SMILES: CC1CCN(C2CCN(C(=O)c3ccc(NC(=O)c4n[nH]c5c4C(C)(C)Cc4cnc(N)nc4-5)cc3)CC2)CC1 [compound 52]
- IC50 [1, 3]: 3 nM
- IC50 [2, 4]: 70 nM
